What follows are compounds tested against T1, GLP-1R (Homo sapiens, UniProt P43220) (assay: EC20 GLP-1(9-36) PAM cAMP Assay: dose response of compound in the presence of fixed concentration of GLP-1(9-36)). Details: GLP-1R CRE-bla CHO-K1 cells, in presence of fixed concentration of GLP-1(9-36), 30 min at 37° C.
T1 construct: host or cells: CRE-bla CHO-K1
Format: cell-based
Protocol: EC20 GLP-1(9-36) PAM cAMP Assay: Dose Response of Compound in the Presence of Fixed Concentration of GLP-1 (9-36).
GLP-1R CRE-bla CHO-K1 cells cultured in growth medium (DMEM-High glucose, 10% dialyzed FBS, 0.1 mM NEAA, 25 mM Hepes, 100 U/mL penicillin/100 μg/mL streptomycin, 5 μg/mL Blasticidin, 600 μg/mL Hygromycin) were trypsinized and plated in suspension into 384 well white flat bottom plates at 5000 cells/well in 12 μL assay buffer (Hanks Balanced Salt solution, 10 mM Hepes, 0.1% BSA, 10 pH 7.4). A 5× compound dose response curve (12-point) was generated in assay buffer containing 1.5 mM IBMX, 4% DMSO. GLP-1(9-36) was diluted to 4.2 μM in assay buffer containing 1.5 mM IBMX and 4% DMSO. The 5× compound dose response was added (3 μL), followed by 0.5 μL of GLP-1(9-36) and cells were incubated for 30 min at 37° C. Direct detection of cAMP was carried out using DiscoveRx HitHunter cAMP kit according to manufacturer's instructions and luminescence was read using a SpectraMax M5 plate reader. Luminescence was converted to total cAMP using a cAMP standard curve and data was analyzed by non-linear regression to determine the EC50 and Emax.

T1 sequence (P43220 24-463): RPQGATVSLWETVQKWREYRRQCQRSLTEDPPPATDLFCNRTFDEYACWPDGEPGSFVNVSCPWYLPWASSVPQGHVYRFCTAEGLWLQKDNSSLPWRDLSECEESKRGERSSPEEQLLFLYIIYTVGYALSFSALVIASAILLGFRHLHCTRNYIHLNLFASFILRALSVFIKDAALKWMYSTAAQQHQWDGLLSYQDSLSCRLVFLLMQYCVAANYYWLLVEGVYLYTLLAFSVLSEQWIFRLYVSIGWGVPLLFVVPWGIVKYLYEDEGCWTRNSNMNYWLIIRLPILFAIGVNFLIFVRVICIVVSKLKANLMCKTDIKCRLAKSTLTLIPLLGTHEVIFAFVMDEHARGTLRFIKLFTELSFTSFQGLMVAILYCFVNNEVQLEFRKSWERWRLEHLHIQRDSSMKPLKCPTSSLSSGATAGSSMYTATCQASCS
T1 sequence (P01275 100-127 partner limits assumed): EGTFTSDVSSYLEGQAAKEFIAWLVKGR

`CCCC1CCC(C2CC=C(c3cnc(-c4ccc(C[C@H](NC(=O)c5ccc(CC(C)C)s5)C(=O)N5CC(C(=O)O)C5)cc4)nc3)CC2)CC1` (stereo partly shown) [Compound 32] and `CCCC1CCC(C2CC=C(c3cnc(-c4ccc(C[C@H](NC(=O)c5ccc(C6CC6)s5)C(=O)N5CC(C(=O)O)C5)cc4)nc3)CC2)CC1` (stereo partly shown) [Compound 34] cannot be ordered by EC50: under 500 nM for the first, under 500 nM for the second.

`CCCC1CCC(C2CC=C(c3cnc(-c4ccc(C[C@H](NC(=O)c5cc6cc(OC)ccc6[nH]5)C(=O)N5CC(C(=O)O)C5)cc4)nc3)CC2)CC1` (stereo partly shown) [Compound 33] and `CCCC1CCC(C2CC=C(c3cnc(-c4ccc(C[C@H](NC(=O)c5ccc(C(C)(C)C(F)(F)F)cc5)C(=O)N5CC(C(=O)O)C5)cc4)nc3)CC2)CC1` (stereo partly shown) [Compound 35] fall in the same range of EC50: 500 to 2500 nM for the first, 500 to 2500 nM for the second.

Compared with `CC(C)(C)c1ccc(C(=O)N[C@@H](Cc2ccc(-c3ncc(C4=CCC(C(C)(C)C)CC4)cn3)cc2)C(=O)N2CC(C(=O)O)C2)s1` (stereo partly shown) [Compound 36], `CC(C)(C)c1ccc(C(=O)N[C@@H](Cc2ccc(-c3ncc(C4=CCC(C(F)(F)F)CC4)cn3)cc2)C(=O)N2CC(C(=O)O)C2)s1` (stereo partly shown) [Compound 37] is higher in EC50: under 500 nM for the first, 500 to 2500 nM for the second.

`CCCCCC1CC=C(c2cnc(-c3ccc(C[C@H](NC(=O)c4ccc(C(C)(C)C)s4)C(=O)N4CC(C(=O)O)C4)cc3)nc2)CC1` (stereo partly shown) [Compound 38] and `CCCCC1CC=C(c2cnc(-c3ccc(C[C@H](NC(=O)c4ccc(C(C)(C)C)s4)C(=O)N4CC(C(=O)O)C4)cc3)nc2)CC1` (stereo partly shown) [Compound 45] fall in the same range of EC50: 500 to 2500 nM for the first, 500 to 2500 nM for the second.

`CCCC1CC=C(c2cnc(-c3ccc(C[C@H](NC(=O)c4ccc(C(C)(C)C)s4)C(=O)N4CC(C(=O)O)C4)cc3)nc2)CC1` (stereo partly shown) [Compound 39] and `CC(C)C1CC=C(c2cnc(-c3ccc(C[C@H](NC(=O)c4ccc(C(C)(C)C)s4)C(=O)N4CC(C(=O)O)C4)cc3)nc2)CC1` (stereo partly shown) [Compound 40] fall in the same range of EC50: 500 to 2500 nM for the first, 500 to 2500 nM for the second.

First: CC(C)(C)c1ccc(C(=O)N[C@@H](Cc2ccc(-c3ncc(C4CCC(C(C)(C)C)CC4)cn3)cc2)C(=O)N2CC(C(=O)O)C2)s1 (stereo partly shown) [Compound 41]
Second: COC1CCC(C2CC=C(c3cnc(-c4ccc(C[C@H](NC(=O)c5ccc(C(C)(C)C)s5)C(=O)N5CC(C(=O)O)C5)cc4)nc3)CC2)CC1 (stereo partly shown) [Compound 48]
The EC50 of the first is higher: 5000 to 10000 nM for the first, 500 to 2500 nM for the second.

First: CC1(C)COC2(CC=C(c3cnc(-c4ccc(CC(NC(=O)c5ccc(C(C)(C)C)s5)C(=O)N5CC(C(=O)O)C5)cc4)nc3)CC2)OC1 (stereo not shown) [Compound 43]
Second: CCCC1CCN(C2CC=C(c3cnc(-c4ccc(C[C@H](NC(=O)c5ccc(C(C)(C)C)s5)C(=O)N5CC(C(=O)O)C5)cc4)nc3)CC2)CC1 (stereo partly shown) [Compound 46]
The EC50 of the first is higher: 5000 to 10000 nM for the first, 2500 to 5000 nM for the second.

Compared with `CCCc1ccc(C2CC=C(c3cnc(-c4ccc(C[C@H](NC(=O)c5ccc(C(C)(C)C)s5)C(=O)N5CC(C(=O)O)C5)cc4)nc3)CC2)cc1` (stereo partly shown) [Compound 47], `CCCC1CC=C(c2cnc(-c3ccc(C[C@H](NC(=O)c4ccc(C(C)(C)C)s4)C(=O)N[C@H](C)C(=O)O)cc3)nc2)CC1` (stereo partly shown) [Compound 52] is higher in EC50: under 500 nM for the first, 500 to 2500 nM for the second. The first is the more potent here.

Compared with `C[C@@H](NC(=O)[C@H](Cc1ccc(-c2ncc(C3=CC(=O)CC(c4ccccc4)C3)cn2)cc1)NC(=O)c1ccc(C(C)(C)C)s1)C(=O)O` (stereo partly shown) [Compound 49], `C[C@@H](NC(=O)[C@H](Cc1ccc(-c2ncc(C3=Cc4ccccc4C3)cn2)cc1)NC(=O)c1ccc(C(C)(C)C)s1)C(=O)O` [Compound 50] is lower in EC50: 5000 to 10000 nM for the first, 500 to 2500 nM for the second. The second is the more potent here.

First: CCC1CC=C(c2cnc(-c3ccc(C[C@H](NC(=O)c4ccc(C(C)(C)C)s4)C(=O)N[C@H](C)C(=O)O)cc3)nc2)CC1 (stereo partly shown) [Compound 51]
Second: CC1CC=C(c2cnc(-c3ccc(C[C@H](NC(=O)c4ccc(C(C)(C)C)s4)C(=O)N[C@H](C)C(=O)O)cc3)nc2)CC1 (stereo partly shown) [Compound 55]
The EC50 of the first is lower: 500 to 2500 nM for the first, 2500 to 5000 nM for the second. The first is the more potent here.

First: CCCCCC1CC=C(c2cnc(-c3ccc(C[C@H](NC(=O)c4ccc(C(C)(C)C)s4)C(=O)N[C@H](C)C(=O)O)cc3)nc2)CC1 (stereo partly shown) [Compound 53]
Second: C[C@@H](NC(=O)[C@H](Cc1ccc(-c2ncc(C3=CCCCC3)cn2)cc1)NC(=O)c1ccc(C(C)(C)C)s1)C(=O)O [Compound 54]
The EC50 of the first is lower: 500 to 2500 nM for the first, 5000 to 10000 nM for the second. The first is the more potent here.

Source: patent US9474755B2, “GLP-1 receptor modulators” (Receptos, Inc., priority 2014, dated 2016)
